Measured values from PubChem BioAssay (NCI).
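The compound was tested at five concentrations on cells cultured in 96-well plates, with a 48-hour exposure period. Here, GI50 denotes the concentration required for 50% inhibition of growth. Definition used: TGI = concentration required for complete inhibition of growth.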

How the values were obtained:
Test in all cases: NCI anticancer screen, dose series, 48 h
MCF7 breast = test system: MCF7 breast
TK-10 renal = test system: TK-10 renal
OVCAR-5 ovarian = test system: OVCAR-5 ovarian
NCI-H460 lung = test system: NCI-H460 lung
PC-3 prostate = test system: PC-3 prostate
HOP-92 NSCLC = test system: HOP-92 NSCLC
MOLT-4 leukemia = test system: MOLT-4 leukemia
HCT-116 colon = test system: HCT-116 colon
SN12C renal = test system: SN12C renal
A498 renal = test system: A498 renal

Row | Structure (SMILES) | TGI (MCF7 breast) [µM] | TGI (TK-10 renal) [µM] | TGI (OVCAR-5 ovarian) [µM] | TGI (NCI-H460 lung) [µM] | TGI (PC-3 prostate) [µM] | TGI (HOP-92 NSCLC) [µM] | TGI (MOLT-4 leukemia) [µM] | TGI (HCT-116 colon) [µM] | TGI (SN12C renal) [µM] | TGI (A498 renal) [µM] | GI50 (MCF7 breast) [µM] | GI50 (TK-10 renal) [µM] | GI50 (OVCAR-5 ovarian) [µM] | GI50 (NCI-H460 lung) [µM] | GI50 (PC-3 prostate) [µM] | GI50 (A498 renal) [µM] | GI50 (HOP-92 NSCLC) [µM] | GI50 (MOLT-4 leukemia) [µM] | GI50 (HCT-116 colon) [µM] | GI50 (SN12C renal) [µM]
1 | COC(=O)C1C(C(=O)OC)N(Cc2ccccc2)C(=O)N1Cc1ccccc1 (stereo unspecified) | > 100 | > 100 | > 100 | > 100 | > 100 | > 100 | > 100 | > 100 | > 100 | – | – | – | – | – | – | – | – | – | – | –
2 | O=C1C(Cl)=C(N2CCN(C3=C(Cl)C(=O)c4ccccc4C3=O)CC2)C(=O)c2ccccc21 | 3.34 | 3.42 | 12.7 | 13.6 | 20.3 | 2.4 | 1.69 | 2.76 | 3.09 | 13.7 | – | – | – | – | – | – | – | – | – | –
3 | C#CCCCCC#Cc1ccccc1C(=O)OC | – | > 100 | > 100 | > 100 | – | 86 | 38.3 | 23 | > 100 | > 100 | – | – | – | – | – | – | – | – | – | –
4 | CC1=C(O)C(=O)[C@@H]2O[C@@H]2C1=O | 31.7 | – | 33.9 | 47.4 | – | 17.1 | 10.9 | 27.8 | 52.4 | 17.1 | – | – | – | – | – | – | – | – | – | –
5 | Oc1ccc(/C=C/c2cc(O)cc(O)c2)cc1 | > 100 | > 100 | > 100 | > 100 | > 100 | > 100 | > 100 | – | > 100 | > 100 | – | – | – | – | – | – | – | – | – | –
6 | COCCOCOc1ccc(OCc2ccccc2)cc1 | > 51.4 | – | > 100 | > 100 | – | > 100 | > 100 | > 100 | > 100 | 99.5 | – | – | – | – | – | – | – | – | – | –
7 | C/C(CCOC1CCCCO1)=C(\C)[Si](C)(C)C (stereo unspecified) | – | > 100 | > 100 | > 100 | – | > 100 | > 100 | > 100 | > 100 | > 100 | – | – | – | – | – | – | – | – | – | –
8 | COc1ccc2[nH]c(O)c(/C=c3/cc4c(c(-c5cc(OC)c(OC)c(OC)c5)n3)=Nc3ccccc3-4)c2c1 | > 100 | > 100 | > 100 | > 100 | > 100 | 99.2 | 10.7 | 64.7 | > 100 | 8.72 | 2.11 | 18.5 | > 100 | 4.07 | 5.47 | 1.7 | 3.43 | 1.94 | 3.49 | 61.2
9 | CCCc1cc(=O)c2c(C)c3[nH]c4ccc(Cl)cc4c3c(C)c2[nH]1 | 3.37 | 4.06 | 5.58 | 3.79 | 14.7 | 5.1 | > 100 | 3.09 | 5.31 | 2.92 | – | – | – | – | – | – | – | – | – | –
10 | CCN1c2ccccc2-n2c(C)nnc2-c2c1n[nH]c2-c1ccccc1 | – | > 100 | > 100 | > 100 | 96.5 | > 100 | 50.7 | > 100 | 81.6 | – | – | – | – | – | – | – | – | – | – | –
11 | C=CCN1C(=O)/C(=C/c2ccccc2)N=C1SC1OC(COC(=O)c2ccccc2)C(OC(=O)c2ccccc2)C1OC(=O)c1ccccc1 (stereo unspecified) | > 100 | > 100 | > 100 | > 100 | > 100 | > 100 | > 100 | – | – | > 100 | – | – | – | – | – | – | – | – | – | –
